Patent US5880111A, “Therapeutic derivations of diphosphonates” (priority 1995, dated 1999)
In brackets after ≈: the same amount, converted by molar mass. Where two headings read alike, the source gives them in different places.

Columns and labels:
Assay in all cases: MIC by broth-dilution method
Type in all cases: cell-based
[1] = test system: Proteus vulgaris OKI 60002
Protocol: (§1) The antibacterial action of the product was evaluated against the following bacterial strains:
Proteus vulgaris OKI 60002
(§2) The sensitivity of the foregoing bacterial strains to both the product of Example 1 and norfloxacin was investigated by the broth-dilution method, and the minimal inhibitory concentration (MIC) values were assessed. MIC was defined as the lowest concentration ([…]) at which no bacterial growth could be observed visually.
(§3) The antibiotics were dissolved in dimethylsulfoxide (DMSO) and the solution was diluted by nine consecutive 2-fold dilutions in Nutrient-broth (NB) culture medium. Aliquots (0.2 ml) from each of these diluted solutions were added to test tubes containing 1.6 ml NB culture medium. The antibiotics were investigated in the concentration range of 100-0.38 μg/ml.
(§4) After overnight culture in NB at 37° C., the bacterial cultures were diluted so that their optical densities (OD) at 620 nm were between 0.08-0.1.
(§5) Incubation of the test tubes took place in a thermostat at 37° C. The test tubes were inspected visually after 24 and 48 hours. The margin of error of in vitro sensitivity determination was ± one dilution step. MIC values were read after 48 hours of incubation. The MIC value was the lowest antibiotic concentration at which no bacterial growth was observed, i.e. the culture medium remained clear. […]

[2] = test system: Escherichia coli OKI 35034
Protocol: as §1
Escherichia coli OKI 35034
as §2, §3, §4, §5

[3] = test system: Staphylococcus epidermidis OKI 110001
Protocol: as §1
Staphylococcus epidermidis OKI 110001
as §2, §3, §4, §5

[4] = test system: Staphylococcus aureus ATCC 25923
Protocol: as §1
Gram positive bacteria: Staphylococcus aureus ATCC 25923
as §2, §3, §4, §5

[5] = test system: Salmonella typhi OKI 10084; details: Salmonella enterica
Protocol: as §1
Gram negative bacteria: Salmonella typhi OKI 10084
as §2, §3, §4, §5

[6] = test system: Pseudomonas aeruginosa ATCC 27853
Protocol: as §1
Pseudomonas aeruginosa ATCC 27853
as §2, §3, §4, §5

[7] = test system: Streptococcus faecalis OKI 80171; details: Enterococcus faecalis, OKI80171, Nutrient-broth, 37° C., read after 48 hours, mean of three independent experiments
Protocol: as §1
Streptococcus faecalis OKI 80171
as §2, §3, §4, §5

Compound | MIC ([1]; Proteus vulgaris, OKI60002, 48 h) | MIC ([2]; Escherichia coli, OKI35034, 48 h) | MIC ([3]; Staphylococcus epidermidis, OKI110001, 48 h) | MIC ([4]; Staphylococcus aureus, ATCC25923, 48 h) | MIC ([5]; Salmonella typhi OKI 10084, Nutrient-broth, 37° C., read after 48 hours, mean of three independent experiments, read-out: MIC) | MIC ([6]; Pseudomonas aeruginosa, ATCC27853, 48 h) | MIC [7] | MIC ([1]; OKI60002, Proteus vulgaris OKI 60002, Nutrient-broth, 37° C., read after 48 hours, mean of three independent experiments, read-out: MIC) | MIC ([2]; OKI35034, Escherichia coli OKI 35034, Nutrient-broth, 37° C., read after 48 hours, mean of three independent experiments, read-out: MIC) | MIC ([3]; OKI110001, Staphylococcus epidermidis OKI 110001, Nutrient-broth, 37° C., read after 48 hours, only two experiments, read-out: MIC) | MIC ([4]; ATCC25923, Staphylococcus aureus ATCC 25923, Nutrient-broth, 37° C., read after 48 hours, mean of three independent experiments, read-out: MIC) | MIC ([5]; TYPHI, 48 h) | MIC ([6]; ATCC27853, Pseudomonas aeruginosa ATCC 27853, Nutrient-broth, 37° C., read after 48 hours, mean of three independent experiments, read-out: MIC)
CCOP(=O)(OCC)C(CN1CCN(c2cc3c(cc2F)c(=O)c(C(=O)O)cn3CC)CC1)P(=O)(OCC)OCC [Example 1, 6-Fluoro-1-ethyl-7-{4-[2,2-bis(diethoxyphosphono)-1-ethyl]-l-piperazyl}-4-oxo-1,4-dihydroquinoline-3-carboxylic acid] | 3.12 µg/mL (≈ 5.04 µM) | 25 µg/mL (≈ 40.4 µM) | 12.5 µg/mL (≈ 20.2 µM) | 12.5 µg/mL (≈ 20.2 µM) | 25 µg/mL (≈ 40.4 µM) | 50 µg/mL (≈ 80.7 µM) | 12.5 µg/mL (≈ 20.2 µM) | – | – | – | – | – | –
CCn1cc(C(=O)O)c(=O)c2cc(F)c(N3CCNCC3)cc21 [NORFLOXACIN, norfloxacin] | – | – | – | – | – | – | 12.5 µg/mL (≈ 39.1 µM) | 6.25 µg/mL (≈ 19.6 µM) | 6.25 µg/mL (≈ 19.6 µM) | 6.25 µg/mL (≈ 19.6 µM) | 6.25 µg/mL (≈ 19.6 µM) | 12.5 µg/mL (≈ 39.1 µM) | 25 µg/mL (≈ 78.3 µM)
